Laboratory results as given in patent US20030139469A1, “Use of inhibitors of soluble epoxide hydrolase to inhibit vascular smooth muscle cell proliferation” (THE REGENTS OF THE UNIVERSITY OF CALIFORNIA, priority 2002, published 2003).

How the values were obtained:
Format in all cases: cell-based
[1] = system: human foreskin fibroblasts; assay: [3H]thymidine incorporation, human foreskin fibroblasts; conditions: PDGF-BB stimulated, similar concentrations to VSM cells, FIG. 1d
Experimental: FIG. 1d. Human foreskin fibroblasts were treated similarly to VSM cells in FIG. 1a and [^3H]thymidine incorporation into DNA was assessed.

[2] = system: Met-1 breast tumor cells; assay: Met-1 breast tumor cell proliferation; conditions: up to 20 μM
[3] = system: HT-29 colon cancer cells; assay: MTT assay HT-29; conditions: up to 40 μM

CCCCCCCCCCCCNC(=O)NC1CCCCC1 [CDU, 1-cyclohexyl-3-dodecyl urea]
[3H]thymidine incorporation [1]: inhibited
effect on Met-1 cells [2]: lack of effect
toxicity, MTT assay [3]: no toxicity observed
